Source: ChEMBL document CHEMBL5230158, “Artapilosines A and B, Unusual Phenanthrene Derivatives Related to Aporphine Alkaloids from Artabotrys pilosus” (J Nat Prod, 2021)

How the values were obtained:
[1] = test system: Human immunodeficiency virus 1; assay: Antiviral activity against HIV-1 IIIB infected in human C8166 cells assessed as inhibition of reverse transcriptase mediated cytopathic effect incubated for 3 days by MTT assay; assay type: functional, organism-based; settings: Human immunodeficiency virus 1, IIIB, C8166, 72 h
[2] = Cytotoxicity against human C8166 cells assessed as reduction in cell viability incubated for 3 days by MTT assay; assay type: toxicity, cell-based; settings: time 3 day
[3] = Therapeutic index, ratio of CC50 for cytotoxicity against human C8166 cells to EC50 for antiviral activity against HIV-1 IIIB infected in human C8166 cells; assay type: toxicity, cell-based; settings: read-out: Ratio CC50/EC50

SMILES: CC(=O)N1CCc2cc3c(c4c2[C@H]1Cc1ccccc1-4)OCO3
- IC50 [1]: > 40 µM

SMILES: Cc1cn([C@H]2C[C@H](N=[N+]=[N-])[C@@H](CO)O2)c(=O)[nH]c1=O [ZIDOVUDINE]
- EC50 [1]: 0.0239 µM
- CC50 at 72 h [2]: 3990 µM
- selectivity ratio [3]: 167000

SMILES: c1ccc2c(c1)C[C@H]1NCCc3cc4c(c-2c31)OCO4 [ANONAINE]
- IC50 [1]: > 40 µM

SMILES: O[C@H]1Cc2cc3c(c4c2c1cc1ccccc14)OCO3
- EC50 [1]: 0.0209 µM
- CC50 at 72 h [2]: 3090 µM
- selectivity ratio [3]: 148000

SMILES: OCCc1cc2c(c3c1ccc1ccccc13)OCO2
- EC50 [1]: 0.125 µM
- CC50 at 72 h [2]: 838 µM
- selectivity ratio [3]: 6690
